The source of these data is patent publication US11241501B2, “Anticancer prodrug for overcoming drug resistance” (Korea University Research and Business Foundation, priority 2018, dated 2022).

The nature of series [1]: WST cell viability assay. It counts as cell-based, human. The conditions noted are these: human; HepG2 cells, WST assay; read-out: IC50 (cytotoxicity). As for the experimental part: (§1) HepG2 cells treated with each compound (5 μM, 24 hr) were co-stained with the mitochondrial marker MitoTracker (green). Boxed regions show co-localization of the test compounds and probe within the mitochondria. […] Experiments were carried out in triplicate and the data shown represent means±SD. **p<0.01. […] HepG2 cells were incubated with BNPP (100 μM) for 2 hr prior to C1 treatment. **p<0.01. […] Cleaved caspase-3 and PARP-1 levels were examined to assess apoptosis induction. C, cleaved.
(§2) Cells were seeded in 24 well plates at 2×10^5 cells per well and were allowed to adhere for at least 24 h, growth medium was replaced with medium containing C1 or its analogues at the indicated concentrations and times, and cell viability was assessed via the WST-1 assay (Roche Diagnostics, Laval, QC, Canada). For the colony formation assay, cells were seeded in 6-well plates. After 24 h, cells were maintained in the presence of each probe or vehicle dimethyl sulfoxide (DMSO) for 10 days. Colonies were fixed with methanol for 10 min and stained with 0.05% crystal violet in 20% ethanol.

The subject of series [2] is HepG2 cells. As to the kind of experiment: WST cell viability assay. The series is classed as cell-based, human. As for the experimental part:
as §1, §2

Series [3] concerns MCF7/Dox cells. The series can be described thus: Cell death assay, Annexin V flow cytometry. The series is classed as cell-based, human. The conditions noted are these: 5 μM. On the procedure: MCF-7/Dox cells (8×10^5 cells) were seeded in 60 mm dishes and cultured for 24 h. The cells were treated with 5 μM compound C1, C3, DCA and/or doxorubicin for 48 h. After washing and centrifugation, the harvested cells were stained with the Annexin V/PI Apoptosis Detection kit (BD Biosciences, USA) for 1 min at room temperature. The apoptotic cells were then quantified on a FACSCalibur™ flow cytometer and analyzed using the CELLQUEST™ software (BD Biosciences).
On the technique in general: A flow cytometer gives signals particle by particle.

Series [4] relates to MCF7/Dox xenograft tumors. The series can be described thus: Independent comparative xenograft study of C1-C4. The conditions noted are these: n=5 per group, FIG. 23C. The series is classed as in vivo, mice. The source says: Tumors are shown (right). […] C1 injection led to a 58% reduction in tumor growth, which was statistically greater than the reductions seen in the case of C2 (16%), C3 (9%), C4 (6%) and DMSO (0%) tested under otherwise identical conditions.

Series [5] deals with MCF7 cells. As to the kind of experiment: Colony formation assay. The series is classed as cell-based, human. The conditions noted are these: 10 days. On the procedure:
as §2

Series [6] can be described thus: Stability on incubation in PBS. It counts as physicochemical. The conditions noted are these: PBS pH 7.4, 37° C., 24 hr. As for the experimental part:
To gain further insight into the preliminary stability and activation of conjugates containing DCA, Dox, and a TPP cation targeting entity, both the target conjugate C1 and the control system C3 (an analog of C1 lacking the chloromethyl groups present in DCA; cf. FIG. 1) were prepared. These two conjugates were obtained in excellent yield, as shown in Scheme S1. […] This release was accompanied by a strong emission band at 560 nm corresponding to free Dox (FIG. 2A and FIG. 2B). Further support for the release of free Dox under these conditions came from time-dependent fluorescence experiments, HPLC, and liquid chromatography-mass spectrometry (FIG. 2B and FIG. 2C, and FIG. 7). […] To test the reaction of C1 with various other bioanalytes, the fluorescence response in the presence of various amino acids, enzymes, and biomolecules was recorded.

Series [7] has as its system MCF7 and MCF7/Dox cells. The series can be described thus: Mitochondrial localization in MCF7 and MCF7/Dox cells. The series is classed as cell-based, human. The text has this:
Mito-tracker (green) was utilized to show the mitochondria;

Series [8] relates to MCF7/Dox cells. As to the kind of experiment: Colony formation assay. It counts as cell-based, human. The conditions noted are these: 10 days. As for the experimental part:
Fluorescence intensities were measured with SpectraMAX 13. Data represent means±SD. **p<0.01. […] Data represent means±SD. **[…]. […] Data represent the mean±SD (n=3 experimental replicates). *p<0.05, **p<0.01. […] MCF7/Dox cells were treated with C1 or C3 as indicated, and the cytosolic (C) and mitochondrial (M) fractions were subjected to immunoblot assay. COX-IV and tubulin were used as markers for the mitochondria and cytosol fractions, respectively.
as §2

Take `COc1cccc2c1C(=O)c1c(O)c3c(c(O)c1C2=O)C[C@@](O)(C(=O)CO)C[C@@H]3OC1C[C@H](NC(=O)OC(Cc2cn(CCCCCC[P+](c3ccccc3)(c3ccccc3)c3ccccc3)nn2)c2ccc(NC(=O)C(Cl)Cl)cc2)[C@H](O)[C@H](C)O1.[Br-]` (stereo partly drawn) [C1]: in series [1], the IC50 came out at 22.1 ± 0.325 µM. The “effect of BNPP pretreatment on C1-driven decrease in cell viability” value in series [2] (HepG2, BNPP 100 μM 2 hr before treatment) is “strongly attenuated”. In addition, the “cell death in cell-survival assays” value in series [2] (compared with C3-C6) is on record as “greater cell death in a dose-dependent manner”. Besides, in series [3], the “apoptosis by Annexin V flow cytometry” value was “promotes both early and late apoptosis”. The “reduction in tumor growth” value in series [4] is listed as 58%. The colony-forming ability result in series [5] and in series [8] was “strong inhibitory effect” each time. In series [6], the “decomposition upon incubation in PBS” value was “no decomposition was observed”. Further, the mitochondrial localization entry in series [7] was “exhibited mitochondrial localization in both MCF7 and MCF7/Dox cells”.

Broadly, the IC50 is the concentration at which inhibition is half-maximal.
